pIC50: −log10 of the molar value.
Biological target: T1, Aurora A (Homo sapiens, UniProt O14965)
T1 construct: cell lysates from Jurkat cells (ATCC TIB-152) used; endogenous in cells; host or cells: Jurkat cells (ATCC TIB-152), treated with pervanadate
T1 sequence (O14965 1-403): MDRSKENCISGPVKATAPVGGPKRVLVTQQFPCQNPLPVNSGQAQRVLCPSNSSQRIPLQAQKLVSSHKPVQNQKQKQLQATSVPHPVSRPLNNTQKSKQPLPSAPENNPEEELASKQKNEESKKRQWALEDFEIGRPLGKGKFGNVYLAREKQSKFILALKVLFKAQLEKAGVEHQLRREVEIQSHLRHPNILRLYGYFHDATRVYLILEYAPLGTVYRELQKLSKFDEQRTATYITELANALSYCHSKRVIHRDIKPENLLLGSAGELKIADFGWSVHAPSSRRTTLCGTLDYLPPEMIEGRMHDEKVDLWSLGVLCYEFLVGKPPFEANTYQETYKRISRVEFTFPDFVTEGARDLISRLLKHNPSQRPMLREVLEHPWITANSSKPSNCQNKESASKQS
Test: Kinobeads assay, Aurora A
Assay type: binding
Conditions: for pIC50: lysate of pervanadate-treated Jurkat cells, read-out: Inhibition values (IC50) Aur A

Compound | JAK3/AurA Fold Selectivity | pIC50
O=C(Cn1cc(Nc2ncc3cnn(Cc4cc(F)cc(N5CCOCC5=O)c4)c3n2)cn1)N1CCNCC1 [Example 109, 4-(3-fluoro-5-((6-((1-(2-oxo-2-(piperazin-1-yl)ethyl)-1H-pyrazol-4-yl)amino)-1H-pyrazolo[3,4-d]pyrimidin-1-yl)methyl)phenyl)morpholin-3-one] | 3-10 Fold | > 7.00
Cn1cc(Nc2ncc3cnn(Cc4c(F)c(F)cc(C(=O)N5CCOCC5)c4F)c3n2)cn1 [Example 110, morpholino(2,4,5-trifluoro-3-((6-((1-methyl-1H-pyrazol-4-yl)amino)-1H-pyrazolo[3,4-d]pyrimidin-1-yl)methyl)phenyl)methanone] | >50 Fold | 5.00 to 6.00
O=C(c1cc(F)c(F)c(Cn2ncc3cnc(Nc4cnn(CCO)c4)nc32)c1F)N1CCOCC1 [Example 111, morpholino(2,4,5-trifluoro-3-((6-((1-(2-hydroxyethyl)-1H-pyrazol-4-yl)amino)-1H-pyrazolo[3,4-d]pyrimidin-1-yl)methyl)phenyl)methanone] | 10-50 Fold | 6.00 to 7.00
C[C@H]1COCCN1c1cccc(Cn2ncc3cnc(Nc4cnn(C)c4)nc32)c1 [Example 112, (S)-N-(1-methyl-1H-pyrazol-4-yl)-1-(3-(3-methylmorpholino)benzyl)-1H-pyrazolo[3,4-d]pyrimidin-6-amine] | 10-50 Fold | 6.00 to 7.00
C[C@@H]1COCCN1c1cccc(Cn2ncc3cnc(Nc4cnn(C)c4)nc32)c1 [Example 113, (R)-N-(1-methyl-1H-pyrazol-4-yl)-1-(3-(3-methylmorpholino)benzyl)-1H-pyrazolo[3,4-d]pyrimidin-6-amine] | >50 Fold | 5.00 to 6.00
Cn1cc(Nc2ncc3cnn(Cc4cccc(NC5COC5)c4)c3n2)cn1 [Example 114, N-(1-methyl-1H-pyrazol-4-yl)-1-(3-(oxetan-3-ylamino)benzyl)-1H-pyrazolo[3,4-d]pyrimidin-6-amine] | 3-10 Fold | > 7.00
Cn1cc(Nc2ncc3cnn(Cc4cccc(-c5cnn(C)c5)c4)c3n2)cn1 [Example 115, N-(1-methyl-1H-pyrazol-4-yl)-1-(3-(1-methyl-1H-pyrazol-4-yl)benzyl)-1H-pyrazolo[3,4-d]pyrimidin-6-amine] | 10-50 Fold | 6.00 to 7.00
CCn1cc(-c2cccc(Cn3ncc4cnc(Nc5cnn(C)c5)nc43)c2)cn1 [Example 116, 1-(3-(1-ethyl-1H-pyrazol-4-yl)benzyl)-N-(1-methyl-1H-pyrazol-4-yl)-1H-pyrazolo[3,4-d]pyrimidin-6-amine] | 10-50 Fold | 6.00 to 7.00
CC(C)n1cc(-c2cccc(Cn3ncc4cnc(Nc5cnn(C)c5)nc43)c2)cn1 [Example 117, 1-(3-(1-isopropyl-1H-pyrazol-4-yl)benzyl)-N-(1-methyl-1H-pyrazol-4-yl)-1H-pyrazolo[3,4-d]pyrimidin-6-amine] | 3-10 Fold | 6.00 to 7.00
Cn1cc(Nc2ncc3cnn(Cc4cccc(-c5cn[nH]c5)c4)c3n2)cn1 [Example 118, 1-(3-(1H-pyrazol-4-yl)benzyl)-N-(1-methyl-1H-pyrazol-4-yl)-1H-pyrazolo[3,4-d]pyrimidin-6-amine] | 10-50 Fold | 5.00 to 6.00
CCCn1cc(-c2cccc(Cn3ncc4cnc(Nc5cnn(C)c5)nc43)c2)cn1 [Example 119, N-(1-methyl-1H-pyrazol-4-yl)-1-(3-(1-propyl-1H-pyrazol-4-yl)benzyl)-1H-pyrazolo[3,4-d]pyrimidin-6-amine] | 10-50 Fold | 5.00 to 6.00
Cn1cc(Nc2ncc3cnn(Cc4cccc(-c5cnn(CC(N)=O)c5)c4)c3n2)cn1 [Example 120, 2-(4-(3-((6-((1-methyl-1H-pyrazol-4-yl)amino)-1H-pyrazolo[3,4-d]pyrimidin-1-yl)methyl)phenyl)-1H-pyrazol-1-yl)acetamide] | 10-50 Fold | 6.00 to 7.00
Cn1cc(Nc2ncc3cnn(Cc4cccc(-c5cnn(CCO)c5)c4)c3n2)cn1 [Example 121, 2-(4-(3-((6-((1-methyl-1H-pyrazol-4-yl)amino)-1H-pyrazolo[3,4-d]pyrimidin-1-yl)methyl)phenyl)-1H-pyrazol-1-yl)ethanol] | 10-50 Fold | 6.00 to 7.00
Cn1cc(-c2cccc(Cn3ncc4cnc(Nc5cnn(CCO)c5)nc43)c2)cn1 [Example 122, 2-(4-((1-(3-(1-methyl-1H-pyrazol-4-yl)benzyl)-1H-pyrazolo[3,4-d]pyrimidin-6-yl)amino)-1H-pyrazol-1-yl)ethanol] | 10-50 Fold | 6.00 to 7.00
Cn1cc(Nc2ncc3cnn(Cc4cccc(-c5cnn(C)c5)c4F)c3n2)cn1 [Example 123, 1-(2-fluoro-3-(1-methyl-1H-pyrazol-4-yl)benzyl)-N-(1-methyl-1H-pyrazol-4-yl)-1H-pyrazolo[3,4-d]pyrimidin-6-amine] | 10-50 Fold | 5.00 to 6.00
Cn1cc(-c2cccc(Cn3ncc4cnc(Nc5cnn(CCO)c5)nc43)c2F)cn1 [Example 124, 2-(4-((1-(2-fluoro-3-(1-methyl-1H-pyrazol-4-yl)benzyl)-1H-pyrazolo[3,4-d]pyrimidin-6-yl)amino)-1H-pyrazol-1-yl)ethanol] | 10-50 Fold | 6.00 to 7.00
Cn1cc(Nc2ncc3cnn(Cc4cc(F)cc(-c5cnn(C)c5)c4)c3n2)cn1 [Example 125, 1-(3-fluoro-5-(1-methyl-1H-pyrazol-4-yl)benzyl)-N-(1-methyl-1H-pyrazol-4-yl)-1H-pyrazolo[3,4-d]pyrimidin-6-amine] | 10-50 Fold | 5.00 to 6.00
Cn1cc(Nc2ncc3cnn(Cc4cc(-c5cnn(C)c5)cc(F)c4F)c3n2)cn1 [Example 126, 1-(2,3-difluoro-5-(1-methyl-1H-pyrazol-4-yl)benzyl)-N-(1-methyl-1H-pyrazol-4-yl)-1H-pyrazolo[3,4-d]pyrimidin-6-amine] | >50 Fold | 5.00 to 6.00
Cn1cc(-c2cc(F)c(F)c(Cn3ncc4cnc(Nc5cnn(CCO)c5)nc43)c2)cn1 [Example 127, 2-(4-((1-(2,3-difluoro-5-(1-methyl-1H-pyrazol-4-yl)benzyl)-1H-pyrazolo[3,4-d]pyrimidin-6-yl)amino)-1H-pyrazol-1-yl)ethanol] | 10-50 Fold | 6.00 to 7.00
